Key:
Assay in all cases: relative viability (nuclei count vs DMSO), 5 days (fraction); higher = more cells survive
LK-2 = tested on: LK-2
Method in brief: (§1)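 Cells from lung cancer lines were seeded into 1536-well plates and, one day later, dosed by pin tool. Treatments were either a single drug or a fixed dose of an anchor drug with five library-drug doses (not always all listed) in √10 steps. After 5 days, nuclei were stained in a one-step fixation (final 0.05% Triton X-100, 1% formaldehyde, 1 ug/ml Hoechst) and counted on 4× images, and relative viability is the treated-to-vehicle nuclei ratio, as the median of duplicate plates.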

NCI-H2347 = tested on: NCI-H2347
Method in brief: as §1

UMC-11 = tested on: UMC-11
Method in brief: as §1

ABC-1 = tested on: ABC-1
Method in brief: as §1

NCI-H441 = tested on: NCI-H441
Method in brief: as §1

NCI-H838 = tested on: NCI-H838
Method in brief: as §1

LC-2-ad = tested on: LC-2-ad
Method in brief: as §1

SW 1573 = tested on: SW 1573
Method in brief: as §1

A-427 = tested on: A-427
Method in brief: as §1

NCI-H2023 = tested on: NCI-H2023
Method in brief: as §1

HCC-15 = tested on: HCC-15
Method in brief: as §1

NCI-H1793 = tested on: NCI-H1793
Method in brief: as §1

NCI-H1944 = tested on: NCI-H1944
Method in brief: as §1

NCI-H647 = tested on: NCI-H647
Method in brief: as §1

NCI-H2342 = tested on: NCI-H2342
Method in brief: as §1

NCI-H1915 = tested on: NCI-H1915
Method in brief: as §1

NCI-H322M = tested on: NCI-H322M
Method in brief: as §1

RERF-LC-KJ = tested on: RERF-LC-KJ
Method in brief: as §1

NCI-H2009 = tested on: NCI-H2009
Method in brief: as §1

EPLC-272H = tested on: EPLC-272H
Method in brief: as §1

NCI-H1734 = tested on: NCI-H1734
Method in brief: as §1

NCI-H358 = tested on: NCI-H358
Method in brief: as §1

NCI-H522 = tested on: NCI-H522
Method in brief: as §1

Question: What does the source list for `CCNC(=O)c1noc(-c2cc(C(C)C)c(O)cc2O)c1-c1ccc(CN2CCOCC2)cc1` [Luminespib] + CC(=O)c1c(C)c2cnc(Nc3ccc(N4CCNCC4)cn3)nc2n(C2CCCC2)c1=O [Palbociclib] (partner 0.5 µM)?
Answer: relative viability (LK-2; first compound 0.002 µM): 0.679; relative viability (LK-2; first compound 0.006325 µM): 0.563; relative viability (LK-2; first compound 0.02 µM): 0.351; relative viability (LK-2; first compound 0.06325 µM): 0.0849; relative viability (LK-2; first compound 0.2 µM): 0.0745; relative viability (NCI-H2347; first compound 0.002 µM): 0.37; relative viability (NCI-H2347; first compound 0.006325 µM): 0.408; relative viability (NCI-H2347; first compound 0.02 µM): 0.38; relative viability (NCI-H2347; first compound 0.06325 µM): 0.384; relative viability (NCI-H2347; first compound 0.2 µM): 0.301; relative viability (UMC-11; first compound 0.002 µM): 0.32; relative viability (UMC-11; first compound 0.006325 µM): 0.303; relative viability (UMC-11; first compound 0.02 µM): 0.296; relative viability (UMC-11; first compound 0.06325 µM): 0.273; relative viability (UMC-11; first compound 0.2 µM): 0.2; relative viability (ABC-1; first compound 0.002 µM): 0.925; relative viability (ABC-1; first compound 0.006325 µM): 0.876; relative viability (ABC-1; first compound 0.02 µM): 0.494; relative viability (ABC-1; first compound 0.06325 µM): 0.286; relative viability (ABC-1; first compound 0.2 µM): 0.245; relative viability (NCI-H441; first compound 0.002 µM): 0.243; relative viability (NCI-H441; first compound 0.006325 µM): 0.215; relative viability (NCI-H441; first compound 0.02 µM): 0.143; relative viability (NCI-H441; first compound 0.06325 µM): 0.102; relative viability (NCI-H441; first compound 0.2 µM): 0.1; relative viability (NCI-H838; first compound 0.002 µM): 0.233; relative viability (NCI-H838; first compound 0.006325 µM): 0.252; relative viability (NCI-H838; first compound 0.02 µM): 0.16; relative viability (NCI-H838; first compound 0.06325 µM): 0.14; relative viability (NCI-H838; first compound 0.2 µM): 0.105; relative viability (LC-2-ad; first compound 0.002 µM): 0.473; relative viability (LC-2-ad; first compound 0.006325 µM): 0.486; relative viability (LC-2-ad; first compound 0.02 µM): 0.556; relative viability (LC-2-ad; first compound 0.06325 µM): 0.478; relative viability (LC-2-ad; first compound 0.2 µM): 0.331; relative viability (SW 1573; first compound 0.002 µM): 0.426; relative viability (SW 1573; first compound 0.006325 µM): 0.344; relative viability (SW 1573; first compound 0.02 µM): 0.396; relative viability (SW 1573; first compound 0.06325 µM): 0.101; relative viability (SW 1573; first compound 0.2 µM): 0.0763; relative viability (A-427; first compound 0.002 µM): 0.516; relative viability (A-427; first compound 0.006325 µM): 0.488; relative viability (A-427; first compound 0.02 µM): 0.503; relative viability (A-427; first compound 0.06325 µM): 0.467; relative viability (A-427; first compound 0.2 µM): 0.258; relative viability (NCI-H2023; first compound 0.002 µM): 0.423; relative viability (NCI-H2023; first compound 0.006325 µM): 0.364; relative viability (NCI-H2023; first compound 0.02 µM): 0.309; relative viability (NCI-H2023; first compound 0.06325 µM): 0.0518; relative viability (NCI-H2023; first compound 0.2 µM): 0.0463; relative viability (HCC-15; first compound 0.002 µM): 0.815; relative viability (HCC-15; first compound 0.006325 µM): 0.776; relative viability (HCC-15; first compound 0.02 µM): 0.875; relative viability (HCC-15; first compound 0.06325 µM): 0.321; relative viability (HCC-15; first compound 0.2 µM): 0.127; relative viability (NCI-H1793; first compound 0.002 µM): 0.306; relative viability (NCI-H1793; first compound 0.006325 µM): 0.334; relative viability (NCI-H1793; first compound 0.02 µM): 0.211; relative viability (NCI-H1793; first compound 0.06325 µM): 0.151; relative viability (NCI-H1793; first compound 0.2 µM): 0.165; relative viability (NCI-H1944; first compound 0.002 µM): 0.309; relative viability (NCI-H1944; first compound 0.006325 µM): 0.389; relative viability (NCI-H1944; first compound 0.02 µM): 0.249; relative viability (NCI-H1944; first compound 0.06325 µM): 0.316; relative viability (NCI-H1944; first compound 0.2 µM): 0.303; relative viability (NCI-H647; first compound 0.002 µM): 0.442; relative viability (NCI-H647; first compound 0.006325 µM): 0.396; relative viability (NCI-H647; first compound 0.02 µM): 0.207; relative viability (NCI-H647; first compound 0.06325 µM): 0.0721; relative viability (NCI-H647; first compound 0.2 µM): 0.0558; relative viability (NCI-H2342; first compound 0.002 µM): 0.527; relative viability (NCI-H2342; first compound 0.006325 µM): 0.527; relative viability (NCI-H2342; first compound 0.02 µM): 0.438; relative viability (NCI-H2342; first compound 0.06325 µM): 0.526; relative viability (NCI-H2342; first compound 0.2 µM): 0.409; relative viability (NCI-H1915; first compound 0.002 µM): 0.562; relative viability (NCI-H1915; first compound 0.006325 µM): 0.507; relative viability (NCI-H1915; first compound 0.02 µM): 0.478; relative viability (NCI-H1915; first compound 0.06325 µM): 0.318; relative viability (NCI-H1915; first compound 0.2 µM): 0.24; relative viability (NCI-H322M; first compound 0.002 µM): 0.406; relative viability (NCI-H322M; first compound 0.006325 µM): 0.471; relative viability (NCI-H322M; first compound 0.02 µM): 0.448; relative viability (NCI-H322M; first compound 0.06325 µM): 0.427; relative viability (NCI-H322M; first compound 0.2 µM): 0.382; relative viability (RERF-LC-KJ; first compound 0.002 µM): 1.04; relative viability (RERF-LC-KJ; first compound 0.006325 µM): 1.01; relative viability (RERF-LC-KJ; first compound 0.02 µM): 1.02; relative viability (RERF-LC-KJ; first compound 0.06325 µM): 0.269; relative viability (RERF-LC-KJ; first compound 0.2 µM): 0.227; relative viability (NCI-H2009; first compound 0.002 µM): 0.287; relative viability (NCI-H2009; first compound 0.006325 µM): 0.172; relative viability (NCI-H2009; first compound 0.02 µM): 0.113; relative viability (NCI-H2009; first compound 0.06325 µM): 0.0496; relative viability (NCI-H2009; first compound 0.2 µM): 0.0514; relative viability (EPLC-272H; first compound 0.002 µM): 0.285; relative viability (EPLC-272H; first compound 0.006325 µM): 0.317; relative viability (EPLC-272H; first compound 0.02 µM): 0.284; relative viability (EPLC-272H; first compound 0.06325 µM): 0.311; relative viability (EPLC-272H; first compound 0.2 µM): 0.0905; relative viability (NCI-H1734; first compound 0.002 µM): 0.359; relative viability (NCI-H1734; first compound 0.006325 µM): 0.389; relative viability (NCI-H1734; first compound 0.02 µM): 0.334; relative viability (NCI-H1734; first compound 0.06325 µM): 0.204; relative viability (NCI-H1734; first compound 0.2 µM): 0.144; relative viability (NCI-H358; first compound 0.002 µM): 0.135; relative viability (NCI-H358; first compound 0.006325 µM): 0.132; relative viability (NCI-H358; first compound 0.02 µM): 0.102; relative viability (NCI-H358; first compound 0.06325 µM): 0.0751; relative viability (NCI-H358; first compound 0.2 µM): 0.0736; relative viability (NCI-H522; first compound 0.002 µM): 0.848; relative viability (NCI-H522; first compound 0.006325 µM): 0.937; relative viability (NCI-H522; first compound 0.02 µM): 0.764; relative viability (NCI-H522; first compound 0.06325 µM): 0.861; relative viability (NCI-H522; first compound 0.2 µM): 0.411

Source: the supplement of paper PMC10307832
